# Experimental data: article PMC12454639, “Direct disassembly of α-syn preformed fibrils into α-syn monomers by an all-D-peptide” (NPJ Parkinson's Disease, 2025)
# Square brackets hold non-standard residues; d marks the D form. Peptide text beside a SMILES is read from it.
# Legend:
# [1] = test system: small α-syn PFF seeds; assay: Time-dependent DLS of small α-syn PFF seeds disassembly; format: biochemical; design: rate constant of PFF disassembly: unit not given here; settings: 200 nM PFF + 500 nM SVD-1a
# Method: Fig. 4 SVD-1a disassembles small α-syn PFF seeds into α-syn monomers. Small α-syn PFF seeds were prepared as described previously. […] A and B Time-dependent DLS measurements with 200 nM small α-syn PFF seeds in the absence (A) and presence (B) of 500 nM SVD-1a. 1 ml sample was continuously measured in a sealed quartz cuvette at 37 °C under quiescent conditions every 60 s for 72 h in a SpectroSize 300 instrument (XtalConcepts, GE). Data are shown as a radius plot where the signal amplitude of each particle size is represented by the data point diameter. C One-phase exponential decay fit of “200 nM PFF + 500 nM SVD-1a” shown in (B). Fit was performed for particles in the range of 1–100 nm with an amplitude > 0.2. Outliers were excluded from fitting using a Q value of 1%. […] Fitting was performed using the “One phase exponential decay” fitting function from GraphPad Prism 10 (GraphPad Software Inc., USA). […] D For AFM analysis, small α-syn PFF seeds pretreated with or without 400 and 1600 nM SVD-1a were incubated and dried on a freshly cleaved mica surface, followed by washing with ddH2O and drying using a gentle stream of N2. Analysis was performed using the NanoWizard 3 system (J-1100, JPK BioAFM, USA), recording multiple surface sections. The sections shown are representative of the observed species and particle density identified on all surface sections. E Exemplary Western blot of small α-syn PFF samples incubated with SVD-1a. 200 nM small α-syn PFFs (monomer equivalent) were incubated with increasing concentrations of SVD-1a for 72 h at 37 °C. PFF and monomer samples that were incubated without SVD-1a served as controls. α-Syn was detected with the antibody Syn211. A prominent α-syn monomer band was present at the expected molecular weight. Below the monomer bands, no further bands were visible. In the upper part of the blot, above the marker range, PFFs were detected, using a longer exposure time due to a weaker signal (see Supplementary Fig. 11 for the whole blot image with different exposure times). F Size-based fractionation by centrifugal concentration followed by ELISA quantification. 200 nM small α-syn PFF (monomer equivalent) were incubated with or without SVD-1a together with a 200 nM monomer control for 72 h at 37 °C. After incubation, the samples were fractioned using a 100 kDa MWCO centrifugal concentrator (Merck, Microcon DNA Fast Flow 100 MWCO). α-Syn content of flow through (red) and retentate (blue) was quantified using an α-syn specific ELISA (BioLegend, Human α-Synuclein (Colorimetric), 448607). Shown are the fractions of the retentate and flow through as a percentage of the total concentration identified for each sample. A linear regression line (blue or red dotted lines) was included for the SVD-1a-treated samples (left) to underline the concentration dependency of the SVD-1a treatment effect. The fractions identified for the α-syn monomer control sample are shown as a bar graph (right). […] Data are shown as mean values with ±SD (n = 3).
# small α-syn PFF seeds were prepared as described previously with some modifications. […] The monomer equivalent concentration was determined by measuring the α-syn concentration in the supernatant after the first centrifugation and subtracting it from the start concentration for fibrilization. […]
# [2] = test system: 15N-labeled full-length acetyl-α-syn; assay: NMR paramagnetic relaxation enhancement (PRE); format: binding; settings: spin-labeled SVD-1a (SVD-1a_Cys_MTSL), 1:1 with α-syn, 10 °C
# Method: The spin-labeled analog of SVD-1a was prepared by covalent attachment of MTSL (S-(1-oxyl-2,2,5,5-tetramethyl-2,5-dihydro-1H-pyrrol-3-yl)methyl methanesulfonothioate, Toronto Research Chemicals, USA) to the C-terminal D-cysteine residue of SVD-1a_Cys. MTSL was dissolved in DMF (N,N-dimethylformamide) with a concentration of 20 mM and diluted in 200 mM HEPES, pH 7.6, to a final concentration of 2 mM. 900 µl of the solution was then added to 1 mg of lyophilized SVD-1a_Cys to create a fivefold molar excess of MTSL compared to SVD-1a_Cys. […]
# NMR paramagnetic relaxation enhancement (PRE) data were recorded on 25 µM ^15N-labeled full-length acetyl-α-syn in the presence of 25 µM paramagnetically labeled (but not isotopically enriched) SVD-1a_Cys_MTSL (using a MTSL spin-label covalently attached to the SVD-1a C-terminus), resulting in a 1:1 ratio of α-syn: SVD-1a. Intensities (Ipara) were extracted from 2D ^1H–^15N Best-TROSY NMR spectra recorded at 600 MHz and 10 °C, each with 128 scans per increment, resulting in a total experimental time of 16 h per spectrum. […] The diamagnetic reference spectra and intensities (Idia) were recorded back-to-back and under identical conditions as for the paramagnetic sample. […]
# [3] = one-phase exponential decay, 37 °C
smiles,measurement,setting,value
CC[C@@H](C)[C@@H](NC(=O)[C@@H](Cc1c[nH]cn1)NC(=O)[C@@H](CCC(=O)O)NC(=O)[C@@H](CCC(N)=O)NC(=O)[C@@H](Cc1c[nH]c2ccccc12)NC(=O)[C@@H](Cc1ccc(O)cc1)NC(=O)[C@H](NC(=O)[C@@H](CCC(=O)O)NC(=O)[C@@H](Cc1c[nH]cn1)NC(=O)[C@H](NC(=O)[C@H]1CCCN1C(=O)[C@@H](CC(C)C)NC(=O)[C@H](N)CCCNC(=N)N)[C@H](C)O)[C@H](C)O)C(=O)N[C@H](Cc1c[nH]c2ccccc12)C(=O)N[C@H](Cc1c[nH]cn1)C(=O)N[C@H](C)C(=O)N[C@H](CCCNC(=N)N)C(=O)N[C@H](CCCNC(=N)N)C(=O)N[C@H](CCCNC(=N)N)C(=O)N[C@H](CCCNC(=N)N)C(=O)N[C@H](CCCNC(=N)N)C(N)=O [SVD-1a] (H-[dR][dL][dP][dT][dH][dE][dT][dY][dW][dQ][dE][dH][dI][dW][dH][dA][dR][dR][dR][dR][dR]-NH2),radius of monomeric α-syn formed,"[1]; 37 °C, 72 h",~ 1.6 nm
same,span of one-phase exponential decay,"[1]; PBS pH 7.4, 37 °C, 72 h, particles 1–100 nm, amplitude > 0.2",23.38 nm
same,radius of small α-syn PFF seeds eliminated,[1]; no change (26 nm) without SVD-1a,~ 26 nm
same,half-life of PFF disassembly,[1]; [3],5.2 h
same,rate constant of PFF disassembly,[1]; [3],0.132
same,site of interaction with α-syn (PRE),[2],"interacts with the entire α-syn monomer, with the C-terminal part showing the strongest interaction"
